# Data from patent US9249152B2, “Cyano containing azabenzofuran compounds for the treatment of hepatitis C” (BRISTOL-MYERS SQUIBB COMPANY, priority 2014, dated 2016).
# Where two headings read alike, the source gives them in different places.
# Tested on: genotype 1b (Con-1) HCV replicon
# Assay: HCV replicon luciferase assay, genotype 1b (Con-1)
# Assay type: cell-based
# Settings: genotype 1b HCV replicon, Huh-7 cells, Renilla luciferase, 3 days
# Experimental: The cell lines used to evaluate compounds consist of a human hepatocyte derived cell line (Huh-7) that constitutively expresses a genotype 1b (Con-1) HCV replicon or a genotype 1b (Con-1) HCV replicon with an asparagine replacing the cysteine at amino acid 316, or a genotype 2a (JFH-1) replicon, containing a Renilla luciferase reporter gene. These cells were maintained in Dulbecco's modified Eagle medium (DMEM) containing 10% FBS, 100 U/mL penicillin/streptomycin and 1.0 mg/mL G418.
# To evaluate compound efficacy, titrated compounds were transferred to sterile 384-well tissue culture treated plates, and the plates were seeded with HCV replicon cells (50 μL at a density of 2.4×10^3 cells/well) in DMEM containing 4% FBS (final DMSO concentration at 0.5%). After 3 days incubation at 37° C., cells were analyzed for Renilla Luciferase activity using the EnduRen substrate (Promega cat #E6485) according to the manufacturer's directions. Briefly, the EnduRen substrate was diluted in DMEM and then added to the plates to a final concentration of 7.5 μM. The plates were incubated for at least 1 h at 37° C. then read on a Viewlux Imager (PerkinElmer) using a luminescence program. The 50% effective concentration (EC50) was calculated using the four-parameter logistic formula noted above.
# [1] = Hepatitis C virus, Huh-7, 72 h, read-out: EC50 1b (class)
# [2] = Hepatitis C virus, Huh-7, 72 h, read-out: EC50 (uM) 1b
compound,measurement,setting,value
CNC(=O)c1c(-c2ccc(F)cc2)oc2nc(CCC(F)(F)F)c(-c3ccc(F)c(C(=O)NC(C)(C#N)C(C)C)c3)cc12 (stereo not drawn) [Compound 13002],EC50,[1],< 0.1 µM
same,EC50,[2],0.0024 µM
CNC(=O)c1c(-c2ccc(F)cc2)oc2nc(CCC(F)(F)F)c(-c3cnc(OC)c(C(=O)NC4(C#N)CCCC4)c3)cc12 [Compound K7004],EC50,[1],< 0.1 µM
CNC(=O)c1c(-c2ccc(F)cc2)oc2nc(CCC(F)(F)F)c(-c3cnc(OC)c(C(=O)NC4(C#N)CC4)c3)cc12 [Compound K7003],EC50,[1],< 0.1 µM
CNC(=O)c1c(-c2ccc(F)cc2)oc2nc(Cl)c(-c3ccc(OC)c(C(=O)NC(C)(C)C#N)c3)cc12 [Compound 10001],EC50,[1],< 0.1 µM
same,EC50,[2],0.0738 µM
CNC(=O)c1c(-c2ccc(F)cc2)oc2nc(NCC(F)(F)F)c(-c3ccc(F)c(C(=O)NC4(C#N)CCC4)c3)cc12 [Compound K2003],EC50,[1],< 0.1 µM
CNC(=O)c1c(-c2ccc(F)cc2)oc2nc(CCC(F)(F)F)c(-c3ccc(F)c(C(=O)NC(C)(C)C#N)c3)cc12 [Compound K1003],EC50,[1],< 0.1 µM
CC[C@H](C)c1nc2oc(-c3ccc(F)cc3)c(C(=O)NC)c2cc1-c1cccc(C(=O)NC(C)(C)C#N)c1 [Compound K11001],EC50,[1],< 0.1 µM
same,EC50,[2],0.0133 µM
CNC(=O)c1c(-c2ccc(F)cc2)oc2nc(NCC(F)(F)F)c(-c3ccc(OC)c(C(=O)NC(C)(C)C#N)c3)cc12 [Compound 21001],EC50,[1],< 0.1 µM
CNC(=O)c1c(-c2ccc(F)cc2)oc2nc(NCC(F)(F)F)c(-c3cc(F)cc(C(=O)NC(C)(C)C#N)c3)cc12 [Compound 23002],EC50,[1],< 0.1 µM
same,EC50,[2],0.0072 µM
CNC(=O)c1c(-c2ccc(F)cc2)oc2nc(NCC(F)(F)C(F)(F)F)c(-c3cccc(C(=O)NC(C)(C)C#N)c3)cc12 [Compound 30001],EC50,[1],< 0.1 µM
CNC(=O)c1c(-c2ccc(F)cc2)oc2nc(CCC(F)(F)F)c(-c3cc(C(=O)NC(C)(C)C#N)ccc3F)cc12 [Compound 15002],EC50,[1],< 0.1 µM
same,EC50,[2],0.0042 µM
CNC(=O)c1c(-c2ccc(F)cc2)oc2nc(NCC(F)(F)F)c(-c3cccc(C(=O)NC(C)(C)C#N)c3)cc12 [Compound 20001],EC50,[1],< 0.1 µM
CNC(=O)c1c(-c2ccc(F)cc2)oc2nc(CCC(F)(F)F)c(-c3cccc(C(=O)NC4(C#N)CCC4)c3)cc12 [Compound 11002],EC50,[1],< 0.1 µM
CNC(=O)c1c(-c2ccc(F)cc2)oc2nc(CCC(F)(F)F)c(-c3ccc(F)c(C(=O)NC(C)C#N)c3)cc12 (stereo not drawn) [Compound 13005],EC50,read-out: EC50 1b (class),< 0.1 µM
CNC(=O)c1c(-c2ccc(F)cc2)oc2nc(NCC(F)(F)F)c(-c3ccc(F)c(C(=O)NC(C)(C)C#N)c3)cc12 [Compound K2001],EC50,[1],< 0.1 µM
[2H]C([2H])([2H])Oc1ncc(-c2cc3c(C(=O)NC)c(-c4ccc(F)cc4)oc3nc2CCC(F)(F)F)cc1C(=O)NC(C)(C#N)C1CC1 (stereo not drawn) [Compound 18001],EC50,[1],< 0.1 µM
same,EC50,[2],0.0037 µM
CNC(=O)c1c(-c2ccc(F)cc2)oc2nc(NCC(F)(F)F)c(-c3ccc(F)c(C(=O)NC(C)(C#N)C4CC4)c3)cc12 (stereo not drawn) [Compound 22006],EC50,read-out: EC50 1b (class),< 0.1 µM
CNC(=O)c1c(-c2ccc(F)cc2)oc2nc(NCC(F)(F)F)c(-c3cccc(C(=O)NC(C)C#N)c3)cc12 (stereo not drawn) [Compound 20002],EC50,[1],< 0.1 µM
CNC(=O)c1c(-c2ccc(F)cc2)oc2nc(NCC(F)(F)F)c(-c3ccc(F)c(C(=O)NC4(C#N)CC4)c3)cc12 [Compound K2002],EC50,[1],< 0.1 µM
same,EC50,[2],0.0034 µM
CNC(=O)c1c(-c2ccc(F)cc2)oc2nc(NCC(F)(F)F)c(-c3cccc(C(=O)NC(C)(C#N)C4CC4)c3)cc12 (stereo not drawn) [Compound 20008],EC50,read-out: EC50 1b (class),< 0.1 µM
CNC(=O)c1c(-c2ccc(F)cc2)oc2nc(NCC(F)(F)F)c(-c3cccc(C(=O)NC(C)(C#N)C4CC4)c3)cc12 (stereo not drawn) [Compound 20006],EC50,[1],< 0.1 µM
same,EC50,[2],0.0031 µM
CNC(=O)c1c(-c2ccc(F)cc2)oc2nc(CCC(F)(F)F)c(-c3ccc(F)c(C(=O)NC(C)(C#N)C4CC4)c3)cc12 (stereo not drawn) [Compound 13006],EC50,[1],< 0.1 µM
same,EC50,[2],0.0036 µM
CNC(=O)c1c(-c2ccc(F)cc2)oc2nc(NCC(F)(F)C(F)(F)F)c(-c3ccc(OC)c(C(=O)NC(C)(C#N)C4CC4)c3)cc12 (stereo not drawn) [Compound 31002],EC50,[1],< 0.1 µM
same,EC50,[2],0.0061 µM
CNC(=O)c1c(-c2ccc(F)cc2)oc2nc(CCC(F)(F)F)c(-c3cccc(C(=O)NC(C)(C#N)C(C)C)c3)cc12 (stereo not drawn) [Compound 11004],EC50,[1],< 0.1 µM
CNC(=O)c1c(-c2ccc(F)cc2)oc2nc(CCC(F)(F)F)c(-c3cnc(OC)c(C(=O)NC(C)(C#N)C(C)C)c3)cc12 (stereo not drawn) [Compound K7005],EC50,[1],< 0.1 µM
same,EC50,[2],0.0028 µM
CNC(=O)c1c(-c2ccc(F)cc2)oc2nc(NCC(F)(F)F)c(-c3ccc(F)c(C(=O)NC(C)(C#N)C4CC4)c3)cc12 (stereo not drawn) [Compound 22005],EC50,read-out: EC50 1b (class),< 0.1 µM
CNC(=O)c1c(-c2ccc(F)cc2)oc2nc(NCC(F)(F)F)c(-c3ccc(F)c(C(=O)NC(C)(C#N)C(C)C)c3)cc12 (stereo not drawn) [Compound K2005],EC50,[1],< 0.1 µM
CNC(=O)c1c(-c2ccc(F)cc2)oc2nc(NCC(F)(F)F)c(-c3ccc(F)c(C(=O)NC(C)C#N)c3)cc12 (stereo not drawn) [Compound 22001],EC50,[1],< 0.1 µM
same,EC50,[2],0.0055 µM
CNC(=O)c1c(-c2ccc(F)cc2)oc2nc(CCC(F)(F)F)c(-c3cc(F)cc(C(=O)NC(C)(C)C#N)c3)cc12 [Compound 14001],EC50,[1],< 0.1 µM
same,EC50,[2],0.0022 µM
CNC(=O)c1c(-c2ccc(F)cc2)oc2nc(NCC(F)(F)F)c(-c3cc(Cl)c(NCC(F)(F)F)c(C(=O)NC(C)(C)C#N)c3)cc12 [Compound 24001],EC50,[1],< 0.1 µM
same,EC50,[2],0.0539 µM
CNC(=O)c1c(-c2ccc(F)cc2)oc2nc(NCC(F)(F)F)c(-c3cccc(C(=O)NC4(C#N)CC4)c3)cc12 [Compound K4003],EC50,[1],< 0.1 µM
same,EC50,[2],0.0043 µM
CNC(=O)c1c(-c2ccc(F)cc2)oc2nc(NCC(F)(F)F)c(-c3cc(F)cc(C(=O)NC(C)(C#N)C4CC4)c3)cc12 (stereo not drawn) [Compound 23001],EC50,[1],< 0.1 µM
CNC(=O)c1c(-c2ccc(F)cc2)oc2nc(NCC(F)(F)F)c(-c3cccc(C(=O)NC4(C#N)CCCC4)c3)cc12 [Compound K4001],EC50,[1],< 0.1 µM
CNC(=O)c1c(-c2ccc(F)cc2)oc2nc(NCC(F)(F)F)c(-c3cccc(C(=O)NC(C)C#N)c3)cc12 (stereo not drawn) [Compound 20003],EC50,read-out: EC50 1b (class),< 0.1 µM
CNC(=O)c1c(-c2ccc(F)cc2)oc2nc(Cl)c(-c3cccc(C(=O)NC(C)(C)C#N)c3)cc12 [Compound 10004],EC50,[1],0.1 to 1 µM
same,EC50,[2],0.105 µM
CNC(=O)c1c(-c2ccc(F)cc2)oc2nc(CCC(F)(F)F)c(-c3ccc(OC)c(C(=O)NC(C)(C)C#N)c3)cc12 [Compound 12001],EC50,[1],< 0.1 µM
same,EC50,[2],0.0025 µM
CNC(=O)c1c(-c2ccc(F)cc2)oc2nc(Cl)c(-c3ccc(OC)c(C(=O)NC4(C#N)CCC4)c3)cc12 [Compound 10002],EC50,[1],< 0.1 µM
CNC(=O)c1c(-c2ccc(F)cc2)oc2nc(NCC(F)(F)F)c(-c3ccc(OC)c(C(=O)NC4(C#N)CC4)c3)cc12 [Compound K5002],EC50,[1],< 0.1 µM
CC[C@@H](C)c1nc2oc(-c3ccc(F)cc3)c(C(=O)NC)c2cc1-c1cccc(C(=O)NC(C)(C)C#N)c1 [Compound K11002],EC50,[1],< 0.1 µM
same,EC50,[2],0.0044 µM
CNC(=O)c1c(-c2ccc(F)cc2)oc2nc(NCC(F)(F)F)c(-c3ccc(OC)c(C(=O)NC4(C#N)CCCC4)c3)cc12 [Compound K5003],EC50,[1],< 0.1 µM
CNC(=O)c1c(-c2ccc(F)cc2)oc2nc(NCC(F)(F)F)c(-c3cccc(C(=O)NC(C)(C#N)C4CC4)c3)cc12 (stereo not drawn) [Compound 20007],EC50,read-out: EC50 1b (class),< 0.1 µM
CNC(=O)c1c(-c2ccc(F)cc2)oc2nc(CCC(F)(F)F)c(-c3cc(Cl)c(Cl)c(C(=O)NC(C)(C)C#N)c3)cc12 [Compound 16001],EC50,[1],< 0.1 µM
CNC(=O)c1c(-c2ccc(F)cc2)oc2nc(NCC(F)(F)F)c(-c3ccc(OC)c(C(=O)NC4(C#N)CCC4)c3)cc12 [Compound K5001],EC50,[1],< 0.1 µM
CNC(=O)c1c(-c2ccc(F)cc2)oc2nc(NCC(F)(F)F)c(-c3cnc(OC)c(C(=O)NC(C)(C)C#N)c3)cc12 [Compound K8001],EC50,[1],< 0.1 µM
CNC(=O)c1c(-c2ccc(F)cc2)oc2nc(NCC(F)(F)F)c(-c3cccc(C(=O)NC(C)(C#N)C(C)C)c3)cc12 (stereo not drawn) [Compound K4004],EC50,[1],< 0.1 µM
same,EC50,[2],0.004 µM
CNC(=O)c1c(-c2ccc(F)cc2)oc2nc(CCC(F)(F)F)c(-c3cccc(C(=O)NC(C)(C#N)C4CC4)c3)cc12 (stereo not drawn) [Compound 11006],EC50,[2],0.0022 µM
same,EC50,read-out: EC50 1b (class),< 0.1 µM
CNC(=O)c1c(-c2ccc(F)cc2)oc2nc(CCC(F)(F)F)c(-c3ccc(OC)c(C(=O)NC(C)(C#N)C(C)C)c3)cc12 (stereo not drawn) [Compound 12004],EC50,[1],< 0.1 µM
same,EC50,[2],0.0033 µM
CNC(=O)c1c(-c2ccc(F)cc2)oc2nc(Cl)c(-c3cccc(C(=O)NC4(C#N)CCC4)c3)cc12 [Compound 10005],EC50,[1],< 0.1 µM
CNC(=O)c1c(-c2ccc(F)cc2)oc2nc(NCC(F)(F)F)c(-c3ccc(F)c(C(=O)NC(C)C#N)c3)cc12 (stereo not drawn) [Compound 22002],EC50,read-out: EC50 1b (class),< 0.1 µM
CNC(=O)c1c(-c2ccc(F)cc2)oc2nc(CCC(F)(F)F)c(-c3cccc(C(=O)NC(C)(C#N)C4CC4)c3)cc12 (stereo not drawn) [Compound 11005],EC50,[1],< 0.1 µM
CNC(=O)c1c(-c2ccc(F)cc2)oc2nc(NCC(F)(F)F)c(-c3cccc(C(=O)NC4(C#N)CCC4)c3)cc12 [Compound K4002],EC50,[1],< 0.1 µM
